Reference: patent publication US12637434B2, “Salt of arylaminoquinazoline-containing compound, and preparation method therefor and use thereof” (priority 2020, dated 2026)
Converted amounts (≈) assume the structure as drawn. “Also recorded” adds a separate entry of the source. Read-outs that look alike come from different tables or passages of the source.

Tests used:
human melanoma A375 = test: Pharmacodynamic experiment of human melanoma A375 nude mice xenograft tumor model; assay type: in vivo, nu/nu female nude mice; conditions: for Animal number (Survival/total) / Tumor weight / Inhibition rate %: once a day, 20 days; for Tumor weight / Inhibition rate %: Day 21; for Inhibition rate %: tumor weight
Procedure: Pharmacodynamic Experiment of Human Melanoma A375 Nude Mice Xenograft Tumor Model
A well-growing human melanoma A375 cell suspension was inoculated into the subcutaneous tissue of the forelimb axilla of nu/nu female nude mice in an inoculation volume of 0.1 mL containing approximately 1×10^7 tumor cells. When the tumor volume grew to 100 mm^3 or more, the mice with good tumor growth were selected, and the animals were evenly divided into 5 groups according to the tumor volume: a Vehicle group, a Vandetanib 12.5 mg/kg group, a Vandetanib 25 mg/kg group, an Example 1 sample 12.5 mg/kg group, and an Example 1 sample 25 mg/kg group, and there were 6 animals in each group. The Vehicle group was orally administered with distilled water, and the remaining groups were orally administered with the corresponding tested drugs in a dosing volume of 20 mL/kg, once a day, and continuously administered for 20 days. The animals were housed normally after administration, and the anti-tumor effect of the tested drugs was dynamically observed by using the method of measuring the diameter of the tumors. At the end of the experiment (Day 21), the animals were sacrificed, and the tumors, were stripped and weighed, and the tumor inhibition rate was calculated.

Solid stability test = assay type: physicochemical; conditions: 40° C./75% RH (open), 7 days
Procedure: The dihydrochloride salt of Example 1 and the dihydrochloride salt tetrahydrate of Example 2 and Example 10 were all placed under the condition of 40° C./75% RH (open) for 7 days to perform the stability test.

[1] = Slurrying in organic solvents, crystalline form by XRPD; assay type: physicochemical; conditions: ~15 mg in 0.5 mL of solvents of Table 15, room temperature and 50° C.
Procedure: Note: The sample of Example 1 (˜15 mg) was added to 0.5 mL of the different solvents listed in Table 15, and slurried at room temperature and 50° C., and the filtered sample was subjected to X-ray powder diffraction. The crystalline form was consistent with that of the dihydrochloride salt obtained in Example 1.

Long-term stability test = assay type: physicochemical
Procedure: An appropriate amount of the salt samples obtained in Examples 1 to 4 and 9 were sealed with a polyethylene film and placed for 5 months under the conditions of 40±2° C. and 75%±5% RH, and a long-term test was carried out.

[2] = Mechanical stability test; assay type: physicochemical; conditions: mechanical grinding for 5 minutes
Procedure: Mechanical Stability Test
An appropriate amount of the dihydrochloride salt of Example 1 was subjected to mechanical grinding for 5 minutes, and X-ray powder diffraction was performed.

[3] = Solubility test in water and pH 2.0 buffer (HPLC); assay type: physicochemical
Procedure: 2. Solubility (Water and pH 2.0 Buffer)
Detection Instrument: Agilent 1260 High Performance Liquid Chromatograph
Detection medium: purified water, pH 2.0 phosphoric acid-disodium hydrogen phosphate buffer
Preparation of control solution: it was taken that an appropriate amount of the referen ce substance of the compound of Formula 1, accurately weighed, dissolved completely by solven t and diluted to 100 μg/mL. 10 μL of the prepared solution was accurately measured and the conte nts of Compound 1 were determined by HPLC.
The salts obtained in Preparation Example 1, Examples 1 to 4 and 9 and Comparative Examples 1 to 2 were tested for solubility in water and pH 2.0 buffer.

[4] = Solubility test in biological vehicles (FaSSIF, FeSSIF, SGF); assay type: physicochemical; conditions: for solubility at 0.5 h: 37 °C, thermodynamic from solid, 37° C., 200 rpm, target concentration 10 mg/mL, unit inferred
Procedure: 9. Determination of Solubility in Biological Vehicles
The preparation procedures of the biological vehicles (SGF, FeSSIF and FaSSIF) used for solubility determination were shown in the following table:
Test method: a sample to be tested was added to a biological vehicles and prepared into a solution or suspension having a target concentration of 10 mg/mL. The resulting solution or suspension was shaken continuously at 200 rpm at 37° C. The suspension was filtered at 0.5 hour and the concentration of the compound in the filtrate was determined by using HPLC.
Solubility Test in Biological Vehicles
The samples of Example 1 and Example 10 (20 mg each) were weighed, and different biological vehicles (2 mL) were added threreto to perform the solubility test, and the results were shown in Table 11.

[5] = Solubility test in conventional organic solvents; assay type: physicochemical
Procedure: Solubility Test in Conventional Organic Solvents
The solubility test of the sample of Preparation Example 1 in different organic solvents was carried out by using the method in the Pharmacopoeia (Volume II, the general examples), and the solubility of the sample of Example 1 in different organic solvents was estimated using the gravimetric method, and the results were shown in Table 15.

[6] = 40 ± 2° C., 75% ± 5% RH, 5 months, sealed with polyethylene film

COc1cc2c(Nc3ccc(Br)cc3F)ncnc2cc1OCCCCN(C)C [Example 1]
Animal number (Survival/total) (human melanoma A375; 12.5 mg/kg oral): 6/6 | Tumor weight (human melanoma A375; 12.5 mg/kg oral): 1.77 ± 0.85 g | Inhibition rate % (human melanoma A375; 12.5 mg/kg oral): 47.99% | Animal number (Survival/total) (human melanoma A375; 25 mg/kg oral): 6/6 | Tumor weight (human melanoma A375; 25 mg/kg oral): 1.34 ± 1.15 g | Inhibition rate % (human melanoma A375; 25 mg/kg oral): 60.52% | effect on growth of tumors (in words) (human melanoma A375; 12.5 and 25 mg/kg oral, compared with the Vehicle group): significantly inhibit the growth of tumors | Crystalline form (Solid stability test): Unchanged | Purity (Solid stability test): 99.64% | crystalline form after slurrying in conventional organic solvents (XRPD) [1]: consistent; also recorded: stable | Purity (5 months) (Long-term stability test; 40 ± 2° C., 75% ± 5% RH, 5 months): 99.60% | Appearance (Long-term stability test; [6]): White powder | Crystalline form (Long-term stability test; [6]): Unchanged | Purity (0 month) (Long-term stability test; start of long-term stability test, 0 month): 99.62% | crystalline form after mechanical grinding (XRPD) [2]: not changed | Solubility (25° C., mg/mL) Medium: pH 2.0 buffer ([3]; 25° C., pH 2.0 phosphoric acid-disodium hydrogen phosphate buffer): 14.29 mg/mL | Solubility (25° C., mg/mL) Medium: Water ([3]; 25° C., purified water): 40.07 mg/mL (≈ 86500 µM) | solubility in pH 2.0 buffer compared with Preparation Example 1 (in words) ([3]; pH 2.0 buffer, acidic conditions): slightly better | water-solubility (in words) ([3]; water, listed as dihydrochloride salt): best of all samples | solubility at 0.5 h ([4]; FaSSIF, pH 6.5, fassif, read-out: Solubility in FaSSIF (pH 6.5)): > 10 mg/mL | solubility in biological vehicles with different pH (in words) ([4]; FaSSIF, FeSSIF, SGF): good solubility | solubility at 0.5 h ([4]; FeSSIF, pH 5, fessif, read-out: Solubility in FeSSIF (pH 5.0)): 5.07 mg/mL (≈ 10900 µM) | solubility at 0.5 h ([4]; SGF, pH 1.2, simulated gastric fluid, read-out: Solubility in SGF (pH 1.2)): > 10 mg/mL | Solubility (mg/mL) in Acetone ([5]; Acetone, Preparation Example 1 by Pharmacopoeia method, Example 1 estimated by gravimetric method): <0.46 mg/mL | Solubility (mg/mL) in Acetonitrile ([5]; Acetonitrile, Preparation Example 1 by Pharmacopoeia method, Example 1 estimated by gravimetric method): <0.38 mg/mL | Solubility (mg/mL) in Dichloromethane ([5]; Dichloromethane, Preparation Example 1 by Pharmacopoeia method, Example 1 estimated by gravimetric method): <0.44 mg/mL | Solubility (mg/mL) in Ethanol ([5]; Ethanol, Preparation Example 1 by Pharmacopoeia method, Example 1 estimated by gravimetric method): ~0.55 mg/mL (≈ 1190 µM) | Solubility (mg/mL) in Ethyl acetate ([5]; Ethyl acetate, Preparation Example 1 by Pharmacopoeia method, Example 1 estimated by gravimetric method): <0.38 mg/mL | Solubility (mg/mL) in Isopropanol ([5]; Isopropanol, Preparation Example 1 by Pharmacopoeia method, Example 1 estimated by gravimetric method): <0.40 mg/mL | Solubility (mg/mL) in Tetrahydrofuran ([5]; Tetrahydrofuran, Preparation Example 1 by Pharmacopoeia method, Example 1 estimated by gravimetric method): <0.37 mg/mL | solubility in the other seven commonly used organic solvents (in words) ([5]; all solvents of Table 15 except methanol): very poor solubility
